Measured values taken from paper PMC11768629, “Potential Interaction of Pinocembrin with Drug Transporters and Hepatic Drug-Metabolizing Enzymes” (Pharmaceuticals, 2025).
Where two headings read alike, the source gives them in different places.

Columns and labels:
hOAT3-MDCK cells = assay: Cell viability assay (MTT) in hOAT3-MDCK cells; type: cell-based, canine; settings: pinocembrin 1, 10 and 50 μM, compared to vehicle-treated cells
Method: The hOAT1-MDCK cells and hOAT3-MDCK cells were treated with 1, 10, and 50 μM pinocembrin for 24 h, followed by a measurement of ^3H-PAH and ^3H-estrone sulfate cellular accumulation. […] The inhibitory effect of pinocembrin occurred in a concentration-dependent manner.
We determined whether the inhibitory effect of pinocembrin on hOAT1 and hOAT3. We studied whether pinocembrin could reduce the renal toxicity of tenofovir, a substrate of hOAT1 and hOAT3 known for inducing renal tubular dysfunction.
The confluent cells in 96-well plates were treated with pinocembrin for 48 h at 37 °C. After that, the cells were incubated with 0.5 mg/mL MTT solution for four hours. The MTT solution was removed, and DMSO (100 µL) was added to dissolve the crystal formazan. The formazan content was detected at a wavelength of 570 nm using a microplate reader. Cell viability was reported as a percentage of the vehicle-treated cells.

CYP2A6 = tested on: CYP2A6; design: method as in PMID 34069400, doi:10.5562/cca3652, PMID 35721953; settings: cited from earlier work
hOCT1 = biological target: T1, hOCT1 (Homo sapiens, UniProt O15245); assay: Cis-inhibition assay, 3H-MPP+ uptake in hOCT1-CHO-K1 cells; type: cell-based; settings: pinocembrin
T1 construct: host or cells: CHO-K1
Method: Next, the effects of pinocembrin on the transport function of renal drug transporters, including hOAT1, hOAT3, hOCT1, hOCT2, hMATE1, and hMATE2, were determined.
A cell monolayer comprising hOAT1-MDCK, hOAT3-MDCK, hOCT1-CHO-K1, hOCT2-CHO-K1, hMATE1-CHO-K1, hMATE2-CHO-K1, and mock cells were utilized for the uptake experiments. The cells were washed three times with a buffer containing (in mM) 140 NaCl, 5 KCl, 0.4 MgSO4, 0.5 MgCl2, 1 CaCl2, 0.3 Na2HPO4, 0.4 KH2PO4, 6 D-glucose, and 4 NaHCO3 at pH 7.4 and incubated at 37 °C for 15 min. After incubation, the hOAT1-MDCK and hOAT3-MDCK cells were incubated for 10 min with ^3H-PAH and ^3H-estrone sulfate, a substrate of hOAT1 and hOAT3, respectively. The hOCT1-CHO-K1 and hOCT2-CHO-K1 cells were incubated with ^3H-MPP^+, a substrate of OCT1 and OCT2, for five minutes. The functions of MATE1 and MATE2 were determined by incubating the hMATE1-CHO-K1 and hMATE2-CHO-K1 cells with a buffer containing ^3H-MPP^+, a substrate of MATE1 and MATE2, at pH 8.5 for five minutes. The cells were washed three times with an ice-cold buffer to stop the transport function. The cells were lyzed with 0.4 N NaOH for at least four hours. The samples were collected and transferred to vials containing a liquid scintillation cocktail to measure radioactivity by a β-counter (Packard BioScience, Wellesley, MA, USA). […]

OATP1A2 = tested on: OATP1A2; design: method as in PMID 28745105; settings: transfected renal cells; cited from earlier work
CYP3A4 = settings: cited from earlier work
OATP2B1 = tested on: OATP2B1; design: method as in PMID 28745105; settings: transfected renal cells; read-out: IC50 on OATP2B1-mediated rosuvastatin uptake; cited from earlier work
hOAT3 = biological target: T2, hOAT3 (Homo sapiens, UniProt Q8TCC7); assay: hOAT3-mediated 6-CF uptake in hOAT3-MDCK cells (inhibitory potency and kinetics); type: cell-based
T2 construct: host or cells: MDCK
T2 sequence (Q8TCC7 1-542): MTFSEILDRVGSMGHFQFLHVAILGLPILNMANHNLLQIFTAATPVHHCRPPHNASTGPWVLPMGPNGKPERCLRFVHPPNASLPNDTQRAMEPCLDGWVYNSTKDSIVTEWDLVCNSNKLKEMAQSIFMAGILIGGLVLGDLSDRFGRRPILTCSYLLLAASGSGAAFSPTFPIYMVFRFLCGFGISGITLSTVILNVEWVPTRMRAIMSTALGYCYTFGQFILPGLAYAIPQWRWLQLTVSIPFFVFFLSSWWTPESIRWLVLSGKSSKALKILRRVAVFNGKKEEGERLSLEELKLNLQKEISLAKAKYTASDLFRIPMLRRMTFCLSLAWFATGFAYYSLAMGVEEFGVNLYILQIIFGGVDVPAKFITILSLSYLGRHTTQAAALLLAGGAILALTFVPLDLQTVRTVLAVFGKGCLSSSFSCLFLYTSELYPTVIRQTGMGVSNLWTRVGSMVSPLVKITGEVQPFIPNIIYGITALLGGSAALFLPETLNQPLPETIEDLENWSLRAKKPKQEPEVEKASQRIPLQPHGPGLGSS
Method: To determine the inhibitory potency of pinocembrin on the hOAT1 and hOAT3 function, the IC50 of pinocembrin on the hOAT1- and hOAT3-mediated uptake of 6-carboxyfluorescein (6-CF), a fluorescent substrate of hOAT1 and hOAT3, was determined. […] Next, the inhibitory mechanism of pinocembrin was determined using a kinetic study.
The hOAT1-MDCK and hOAT3-MDCK cell monolayers were incubated at 37 °C with an uptake buffer containing 6-CF (10 µM), a fluorescent substrate of hOAT1 and hOAT3 [12], and pinocembrin (0–50 µM) for 10 min. Uptake was terminated by removing the uptake solution and washing four times with a cold buffer. The cell monolayers were lysed with 0.4 N NaOH for 30 min. The samples were transferred to 96-black well plates to measure the fluorescence intensity using a fluorescent plate reader (EnVision XCite 2105 Multimode Plate Reader, Packard BioScience, Wellesley, MA, USA) at excitation and emission wavelengths of 490 and 510, respectively. The IC50 of pinocembrin on hOAT1- and hOAT3-mediated 6-CF uptake was calculated in GraphPad Prism using sigmoidal concentration–response analysis using the equation Y = 100/(IC50/X)^HillSlope (X is the concentration, while Y is the normalized response). In addition, the estimated inhibitory constant (Ki) was calculated using the Cheng–Prusoff equation.
The hOAT1-MDCK and hOAT3-MDCK cell monolayers were incubated with 6-CF at increasing concentrations (0 to 100 µM) and in the absence or presence of 5 µM pinocembrin for 10 min. The kinetic parameters of 6-CF transport by hOAT1 and hOAT3 in the presence of pinocembrin were determined using nonlinear regression analysis to fit the Michaelis–Menten kinetic equation: V=Vmax[S]/Km+[S] where V is the rate of 6-CF transport, Vmax is the maximum rate of 6-CF transport, Km is the 6-CF concentration that results in half the maximum transport (Michaelis–Menten constant), and [S] is the concentration of 6-CF in the transport reaction.

T1 sequence (O15245 whole entry): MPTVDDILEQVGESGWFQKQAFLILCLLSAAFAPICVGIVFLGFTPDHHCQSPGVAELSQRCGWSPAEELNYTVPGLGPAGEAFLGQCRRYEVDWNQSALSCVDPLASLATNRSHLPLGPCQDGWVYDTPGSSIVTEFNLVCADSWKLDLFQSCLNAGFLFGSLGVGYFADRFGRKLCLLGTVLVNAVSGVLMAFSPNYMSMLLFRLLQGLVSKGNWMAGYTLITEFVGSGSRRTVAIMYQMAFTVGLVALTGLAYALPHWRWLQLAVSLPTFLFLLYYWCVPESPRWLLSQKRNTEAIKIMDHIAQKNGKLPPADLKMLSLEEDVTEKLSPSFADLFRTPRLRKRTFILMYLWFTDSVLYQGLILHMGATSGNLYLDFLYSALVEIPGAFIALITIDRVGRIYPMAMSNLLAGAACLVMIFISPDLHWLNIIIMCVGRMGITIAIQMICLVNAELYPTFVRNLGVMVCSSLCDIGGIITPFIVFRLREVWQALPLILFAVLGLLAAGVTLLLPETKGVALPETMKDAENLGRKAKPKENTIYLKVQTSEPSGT

## O=C1C[C@@H](c2ccccc2)Oc2cc(O)cc(O)c21 [pinocembrin]
hOAT3-MDCK cells
  cell viability: did not affect cell viability
CYP2A6
  effect on the activity of CYP2A6: does not affect
hOCT1
  hOCT1-mediated uptake of 3H-MPP+: did not alter
OATP1A2
  effect on OATP1A2 function: weakly inhibits
CYP3A4
  effect on the activity of CYP3A4: inhibits the activities
CYP3A4; concentrations of 1–5 µM
  effect on the activity of CYP3A4: shows an inhibitory effect
OATP2B1
  IC50: 8900 nM
hOAT3; 5 μM pinocembrin, 6-CF up to 100 μM, hOAT3-MDCK cells
  Vmax of hOAT3-mediated 6-CF uptake, With Pinocembrin: 11.32 ± 2.33 nmol/min/cm^2
hOAT3; hOAT3-MDCK cells, 6-CF 10 µM, mean ± S.D., three experiments
  IC50: 2380 ± 980 nM
hOAT3; hOAT3-MDCK cells, estimated with the Cheng–Prusoff equation
  Ki: 1300 ± 240 nM
hOAT3; kinetic study, 5 μM pinocembrin: Km increased, Vmax unchanged
  inhibitory mechanism on hOAT3 transport function: competitively
